Test results reported in publication PMC8453848, “Effect of GLPG1205, a GPR84 Modulator, on CYP2C9, CYP2C19, and CYP1A2 Enzymes: In Vitro and Phase 1 Studies” (Clinical Pharmacology in Drug Development, 2021).
Read-outs that look alike come from different tables or passages of the source. One block for each compound: values may come before it.

Columns and labels:
CYP2C19 = CYP2C19 (Homo sapiens, UniProt P33261); assay: Phase 1 drug-drug interaction study: PK of omeprazole and 5-hydroxyomeprazole with placebo or GLPG1205; conditions: for tmax: median (min‐max); for AUC: male, plasma, oral, arithmetic mean (CV%)
Description: Prior to injection into the analytical system, isolation of omeprazole, its metabolite and the deuterated IS (omeprazole –d3) from 200 µL of human Li-heparin plasma was performed by solid phase extraction performed on Oasis HBL 60mg 3cc cartridges (Waters, Zellik, Belgium). The elution from the cartridges was done with 1 mL of methanol and then the eluate was evaporated to dryness under a stream of nitrogen at approximatively +35°C. The residue was reconstituted with 0.2 mL of mobile phase and then centrifuged at about 3500 rpm for 5 minutes at +5°C. 120 µL of the clear supernatant was transferred into injection vials. […] Chromatographic separation was performed on a Zorbax XBD-C8 column (Agilent, Eindhoven, The Netherlands) (50 x 4.6 mm, 3.5 µm from Interchim) by using a Nexera HLPC system (Shimadzu, Kyoto, Japan) in isocratic elution mode.

CYP2C9 = CYP2C9 (Homo sapiens, UniProt P11712); conditions: for AUC0‐inf: arithmetic mean (CV%); for tmax: median (min‐max)
CYP1A2 [1] = target: T1, CYP1A2 (Homo sapiens, UniProt P05177); assay: clinical; conditions: male, plasma, oral; for half-life: t1/2, λz
T1 sequence (P05177 1-516): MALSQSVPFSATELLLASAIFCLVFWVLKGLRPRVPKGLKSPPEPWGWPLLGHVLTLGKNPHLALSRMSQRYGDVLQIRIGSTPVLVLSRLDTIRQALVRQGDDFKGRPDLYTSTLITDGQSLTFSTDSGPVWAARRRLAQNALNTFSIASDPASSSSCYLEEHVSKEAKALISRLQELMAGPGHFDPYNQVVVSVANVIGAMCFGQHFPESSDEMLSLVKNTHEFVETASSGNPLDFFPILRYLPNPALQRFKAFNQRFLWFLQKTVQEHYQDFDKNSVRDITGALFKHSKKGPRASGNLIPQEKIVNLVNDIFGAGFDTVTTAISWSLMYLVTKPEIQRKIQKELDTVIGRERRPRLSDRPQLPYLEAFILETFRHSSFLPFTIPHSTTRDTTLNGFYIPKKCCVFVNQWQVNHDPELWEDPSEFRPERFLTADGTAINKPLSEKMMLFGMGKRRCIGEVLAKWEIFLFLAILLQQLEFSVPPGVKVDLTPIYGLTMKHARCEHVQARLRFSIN

CYP1A2 [2] = target: T1, CYP1A2; conditions: for tmax: median (min‐max); for R_AUC0‐t (metabolite‐over‐parent ratio): geometric mean (geometric CV%)
[3] = GLPG1205 100 mg once a day + warfarin
[4] = AUC0‐t, GLPG1205 100 mg once a day + caffeine, arithmetic mean (CV%)
[5] = AUC0‐t, Placebo + caffeine, arithmetic mean (CV%)
[6] = GLPG1205 100 mg once a day + caffeine 100 mg day 13, n = 14, arithmetic mean (CV%)
[7] = Placebo + caffeine 100 mg day 13, n = 14, arithmetic mean (CV%)
[8] = GLPG1205 relative to placebo (ANOVA)
[9] = GLPG1205 100 mg once a day + caffeine

Sequence of CYP2C19 (P33261 whole entry): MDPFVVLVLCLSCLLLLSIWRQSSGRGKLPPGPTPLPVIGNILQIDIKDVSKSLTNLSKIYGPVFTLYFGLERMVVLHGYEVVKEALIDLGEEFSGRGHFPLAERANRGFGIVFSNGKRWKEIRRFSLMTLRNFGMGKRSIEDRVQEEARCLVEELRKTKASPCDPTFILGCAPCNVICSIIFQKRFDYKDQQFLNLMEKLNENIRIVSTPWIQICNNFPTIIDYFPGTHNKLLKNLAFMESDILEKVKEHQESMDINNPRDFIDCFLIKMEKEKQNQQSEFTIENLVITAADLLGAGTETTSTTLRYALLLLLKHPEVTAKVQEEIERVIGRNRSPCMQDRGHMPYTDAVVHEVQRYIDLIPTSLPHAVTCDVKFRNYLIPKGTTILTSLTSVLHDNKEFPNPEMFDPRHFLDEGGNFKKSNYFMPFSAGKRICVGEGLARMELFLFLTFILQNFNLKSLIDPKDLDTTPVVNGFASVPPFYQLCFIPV
Sequence of CYP2C9 (P11712 whole entry): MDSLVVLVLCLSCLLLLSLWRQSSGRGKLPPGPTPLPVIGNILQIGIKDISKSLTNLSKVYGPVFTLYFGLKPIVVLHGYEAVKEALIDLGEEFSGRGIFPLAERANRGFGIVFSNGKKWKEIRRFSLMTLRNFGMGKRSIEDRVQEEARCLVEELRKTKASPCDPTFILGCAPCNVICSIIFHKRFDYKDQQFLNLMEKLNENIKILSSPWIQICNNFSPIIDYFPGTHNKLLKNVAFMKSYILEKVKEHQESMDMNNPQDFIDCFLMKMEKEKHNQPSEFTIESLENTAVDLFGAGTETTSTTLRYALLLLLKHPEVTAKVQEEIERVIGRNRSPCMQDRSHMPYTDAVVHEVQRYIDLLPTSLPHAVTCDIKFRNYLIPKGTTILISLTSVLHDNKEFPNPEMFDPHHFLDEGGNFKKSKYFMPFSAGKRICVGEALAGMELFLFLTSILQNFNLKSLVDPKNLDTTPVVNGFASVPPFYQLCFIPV

AUC0‐inf, PE (90% CI) of least‐squares geometric means ratio (CYP2C19; human, in vivo): 1.08 (0.98‐1.20)
AUC0‐t, PE (90% CI) of least‐squares geometric means ratio (CYP2C19; human, in vivo): 1.08 (0.96‐1.21)
R_AUC0‐inf, PE (90% CI) of least‐squares geometric means ratio (CYP2C19; in vivo): 0.83 (0.77‐0.89)
R_AUC0‐t, PE (90% CI) of least‐squares geometric means ratio (CYP2C19; in vivo): 0.84 (0.79‐0.89)
Compound: COc1ccc2nc([S+]([O-])Cc3ncc(CO)c(OC)c3C)[nH]c2c1 (centres unmarked) [5‐Hydroxyomeprazole, 5‐hydroxyomeprazole]

Compound: CC(=O)C[C@@H](c1ccccc1)c1c(O)c2ccc(O)cc2oc1=O [(S)‐7‐Hydroxywarfarin, (S)‐7‐hydroxywarfarin]
AUC0‐t, PE (90% CI) of least‐squares geometric means ratio (CYP2C9; human, in vivo): 1.15 (1.00‐1.32)
R_AUC0‐t, PE (90% CI) of least‐squares geometric means ratio (CYP2C9; in vivo): 1.01 (0.87‐1.19)

Compound: CC(=O)C[C@@H](c1ccccc1)c1c(O)c2ccccc2oc1=O [(S)‐Warfarin, (S)‐warfarin]
Cmax (CYP2C9; GLPG1205 100 mg once a day + warfarin 10 mg day 13, n = 14, arithmetic mean (CV%)): 0.481 (19.8) μg/mL
AUC0‐inf (CYP2C9; [3]): 17.5 (24.9) μg·h/mL
tmax (CYP2C9; [3]): 2.0 (0.5‐4.0) h
Cmax (CYP2C9; Placebo + warfarin 10 mg day 13, n = 14, arithmetic mean (CV%)): 0.453 (21.3) μg/mL
AUC0‐inf (CYP2C9; Placebo + warfarin): 15.1 (21.1) μg·h/mL
tmax (CYP2C9; Placebo + warfarin): 2.0 (0.5‐4.0) h

Compound: Cn1c(=O)c2c(ncn2C)n(C)c1=O [Caffeine, caffeine]
AUC (CYP1A2 [1]; AUC0‐inf, GLPG1205 100 mg once a day + caffeine, arithmetic mean (CV%)): 17400 ng·h/mL
AUC (CYP1A2 [1]; AUC0‐inf, Placebo + caffeine, n = 12, arithmetic mean (CV%)): 18700 ng·h/mL
AUC (CYP1A2 [1]; [4]): 15700 ng·h/mL
AUC (CYP1A2 [1]; [5]): 16300 ng·h/mL
Cmax (CYP1A2 [1]; [6]): 2160 ng/mL
Cmax (CYP1A2 [1]; [7]): 2150 ng/mL
half-life (CYP1A2 [1]; GLPG1205 100 mg once a day + caffeine, arithmetic mean (CV%)): 294 min
half-life (CYP1A2 [1]; Placebo + caffeine, n = 13, arithmetic mean (CV%)): 344 min
tmax (CYP1A2 [2]; Placebo + caffeine): 1.0 (0.3‐3.0) h

tmax (CYP2C19; GLPG1205 100 mg once a day + omeprazole): 2.0 (1.0‐5.0) h
AUC0‐inf, PE (90% CI) of least‐squares geometric means ratio (CYP2C19; [8]): 1.36 (1.18‐1.58)
AUC0‐t, PE (90% CI) of least‐squares geometric means ratio (CYP2C19; [8]): 1.28 (1.10‐1.49)
Cmax, PE (90% CI) of least‐squares geometric means ratio (CYP2C19; [8]): 1.30 (1.03‐1.65)
t1/2, λz, PE (90% CI) of least‐squares geometric means ratio (CYP2C19; [8]): 1.09 (0.97‐1.22)
tmax (CYP2C19; Placebo + omeprazole): 3.0 (2.0‐5.0) h
AUC (CYP2C19; human, 20 mg, AUC0‐inf, Placebo + omeprazole): 520 ng·h/mL
AUC (CYP2C19; human, 20 mg, AUC0‐t, Placebo + omeprazole): 486 ng·h/mL
AUC (CYP2C19; human, AUC0‐inf, GLPG1205 100 mg once a day + omeprazole): 548 ng·h/mL
AUC (CYP2C19; human, AUC0‐t, GLPG1205 100 mg once a day + omeprazole): 563 ng·h/mL
Compound: COc1ccc2[nH]c([S+]([O-])Cc3ncc(C)c(OC)c3C)nc2c1 (centres unmarked) [Omeprazole, omeprazole, reference compound]

AUC (CYP1A2 [1]; [4]): 8600 ng·h/mL
AUC (CYP1A2 [1]; [5]): 8430 ng·h/mL
Cmax (CYP1A2 [1]; [6]): 634 ng/mL
Cmax (CYP1A2 [1]; [7]): 577 ng/mL
R_AUC0‐t (metabolite‐over‐parent ratio) (CYP1A2 [2]; [9]): 0.538 (27.7)
tmax (CYP1A2 [2]; [9]): 7.0 (0.3‐12.0) h
AUC0‐t, PE (90% CI) of least‐squares geometric means ratio (CYP1A2 [2]; [8]): 0.96 (0.79‐1.16)
Cmax, PE (90% CI) of least‐squares geometric means ratio (CYP1A2 [2]; [8]): 1.08 (0.97‐1.21)
R_AUC0‐t, PE (90% CI) of least‐squares geometric means ratio (CYP1A2 [2]; [8]): 1.00 (0.87‐1.15)
R_AUC0‐t (metabolite‐over‐parent ratio) (CYP1A2 [2]; Placebo + caffeine): 0.539 (30.5)
Compound: Cn1c(=O)[nH]c2ncn(C)c2c1=O [Paraxanthine, paraxanthine]
